The target of assay [1] is T1, rat Nav1.4 α-subunit (Rattus norvegicus, UniProt P15390). Kind of assay: whole-cell patch clamp, peak INa. It counts as cell-based. Background: Patch clamp records ionic current or voltage across a cell membrane.
Assay [2] has as its target T1, rat Nav1.4 α-subunit. Kind of assay: whole-cell patch clamp, peak INa. It counts as cell-based. This is another data set of the same source.

T1 sequence (P15390 whole entry): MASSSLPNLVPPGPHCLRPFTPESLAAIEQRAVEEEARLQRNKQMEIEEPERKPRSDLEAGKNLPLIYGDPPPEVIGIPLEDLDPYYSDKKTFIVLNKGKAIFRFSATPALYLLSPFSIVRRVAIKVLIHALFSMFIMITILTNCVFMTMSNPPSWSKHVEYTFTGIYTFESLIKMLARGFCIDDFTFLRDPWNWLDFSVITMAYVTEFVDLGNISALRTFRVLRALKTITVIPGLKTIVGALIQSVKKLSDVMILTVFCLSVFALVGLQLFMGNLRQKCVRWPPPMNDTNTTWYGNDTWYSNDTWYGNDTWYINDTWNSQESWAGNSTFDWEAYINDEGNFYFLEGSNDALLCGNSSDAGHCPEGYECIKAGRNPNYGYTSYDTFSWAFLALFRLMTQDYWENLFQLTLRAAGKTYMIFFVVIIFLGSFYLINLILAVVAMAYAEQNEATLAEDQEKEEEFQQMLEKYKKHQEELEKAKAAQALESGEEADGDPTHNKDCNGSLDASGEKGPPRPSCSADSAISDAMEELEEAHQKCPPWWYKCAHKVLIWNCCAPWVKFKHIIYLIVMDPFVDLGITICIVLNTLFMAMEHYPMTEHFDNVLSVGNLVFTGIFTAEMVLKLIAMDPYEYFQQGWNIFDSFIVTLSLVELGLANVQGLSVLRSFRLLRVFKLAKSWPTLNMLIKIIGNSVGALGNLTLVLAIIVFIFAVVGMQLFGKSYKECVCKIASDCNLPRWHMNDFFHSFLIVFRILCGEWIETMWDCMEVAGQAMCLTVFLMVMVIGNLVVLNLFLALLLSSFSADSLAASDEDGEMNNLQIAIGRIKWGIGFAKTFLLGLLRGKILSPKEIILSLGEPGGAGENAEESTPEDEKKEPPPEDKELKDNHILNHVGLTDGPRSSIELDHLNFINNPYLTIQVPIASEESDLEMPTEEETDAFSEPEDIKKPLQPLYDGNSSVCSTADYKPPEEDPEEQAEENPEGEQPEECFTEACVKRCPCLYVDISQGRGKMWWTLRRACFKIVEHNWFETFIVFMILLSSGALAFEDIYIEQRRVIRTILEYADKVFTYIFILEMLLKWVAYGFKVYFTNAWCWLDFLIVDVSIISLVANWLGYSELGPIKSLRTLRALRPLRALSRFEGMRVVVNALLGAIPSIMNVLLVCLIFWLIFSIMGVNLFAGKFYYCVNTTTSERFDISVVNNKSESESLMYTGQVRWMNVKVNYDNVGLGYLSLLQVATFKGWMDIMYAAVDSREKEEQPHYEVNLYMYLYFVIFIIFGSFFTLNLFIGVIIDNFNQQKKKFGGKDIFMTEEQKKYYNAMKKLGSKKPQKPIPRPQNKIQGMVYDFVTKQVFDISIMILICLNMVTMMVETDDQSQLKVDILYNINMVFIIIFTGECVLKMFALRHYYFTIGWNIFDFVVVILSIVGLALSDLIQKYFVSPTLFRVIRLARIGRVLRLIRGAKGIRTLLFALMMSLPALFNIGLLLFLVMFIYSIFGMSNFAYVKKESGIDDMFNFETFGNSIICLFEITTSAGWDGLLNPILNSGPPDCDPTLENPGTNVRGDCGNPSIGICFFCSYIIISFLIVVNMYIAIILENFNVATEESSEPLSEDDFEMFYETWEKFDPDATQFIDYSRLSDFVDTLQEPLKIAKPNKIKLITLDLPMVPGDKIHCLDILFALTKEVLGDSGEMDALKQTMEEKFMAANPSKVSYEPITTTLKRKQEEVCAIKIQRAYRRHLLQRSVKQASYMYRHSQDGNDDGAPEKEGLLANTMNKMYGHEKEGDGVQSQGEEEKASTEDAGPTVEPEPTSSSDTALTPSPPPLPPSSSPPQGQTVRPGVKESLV

As a reminder, the inhibition is the share of the control response that was lost under treatment. `FC(F)OC(F)(F)C(F)Cl` (centres unmarked) [enflurane]: the inhibition at 820 µM on rat Nav1.4 α-subunit [1] (read-out: % inhibition at 0.82 mM) came to 32 ± 6.7%.
In the case of `FC(F)(F)C(Cl)Br` (centres unmarked) [halothane], at rat Nav1.4 α-subunit [1] (read-out: % inhibition at 0.42 mM), the inhibition at 420 µM amounted to 32 ± 3.5%.
As usually defined, the IC50 is the point on the concentration scale where inhibition reaches its midpoint. A high value points to weaker potency. In the case of `FC(F)OC(Cl)C(F)(F)F` (centres unmarked) [isoflurane], half-maximal inhibition on rat Nav1.4 α-subunit [2] (IC50) was put at 1160 µM. In addition, the inhibition at 460 µM at rat Nav1.4 α-subunit [1] (read-out: % inhibition at 0.46 mM) was found to be 19 ± 1.9%.
Take `FCOC(C(F)(F)F)C(F)(F)F` [sevoflurane]: at rat Nav1.4 α-subunit [1] (read-out: % inhibition at 0.44 mM), the inhibition at 440 µM worked out at 17 ± 3.3%.

The record behind these values is publication PMC2699670 (Anesthesiology, 2009).
